Measured values: patent publication US12558320B2, “Method of preparing a solid dosage form and a lubricant” (Evonik Operations GmbH, priority 2019, dated 2026)

Assay: Quantification of stearic acid and palmitic acid in water after homogenization, centrifugation and filtration
Assay type: physicochemical
Experimental: For the quantification of stearic acid and palmitic acid in water from magnesium stearate alone 1 mg magnesium stearate was added in water under high shear homogenization and mixed for 15 min under continuous homogenization. After homogenization, the prepared dispersion was centrifuged to remove bigger particle size. The supernatant solution was then filtered through 0.2-micron nylon syringe filter and the filtrate was analyzed for content of stearic acid and palmitic acid. […] After homogenization, the prepared dispersion was centrifuged to remove bigger particle size. The supernatant solution was then filtered through 0.45 μm (B1) or 0.2 μm (B2) nylon syringe filter and the filtrate were analyzed for content of stearic acid and palmitic acid.

Substance: Magnesium stearate
- Palmitic acid (powder, unfiltered): 49.35 % w/w
- Stearic acid (powder, unfiltered): 50.64 % w/w
- Palmitic acid (water, 0.2 μm filtered): 2.91 % w/w
- Stearic acid (water, 0.2 μm filtered): 0.00 % w/w
- Total fatty acid in media (water, 0.2 μm filtered): 2.91%
